This test has as its target T1, NRP-1 (Homo sapiens, UniProt O14786).
T1 construct: purchased R&D Systems, UK 3870-N1-025
T1 sequence (O14786 22-644 isoform O14786-2 limits assumed): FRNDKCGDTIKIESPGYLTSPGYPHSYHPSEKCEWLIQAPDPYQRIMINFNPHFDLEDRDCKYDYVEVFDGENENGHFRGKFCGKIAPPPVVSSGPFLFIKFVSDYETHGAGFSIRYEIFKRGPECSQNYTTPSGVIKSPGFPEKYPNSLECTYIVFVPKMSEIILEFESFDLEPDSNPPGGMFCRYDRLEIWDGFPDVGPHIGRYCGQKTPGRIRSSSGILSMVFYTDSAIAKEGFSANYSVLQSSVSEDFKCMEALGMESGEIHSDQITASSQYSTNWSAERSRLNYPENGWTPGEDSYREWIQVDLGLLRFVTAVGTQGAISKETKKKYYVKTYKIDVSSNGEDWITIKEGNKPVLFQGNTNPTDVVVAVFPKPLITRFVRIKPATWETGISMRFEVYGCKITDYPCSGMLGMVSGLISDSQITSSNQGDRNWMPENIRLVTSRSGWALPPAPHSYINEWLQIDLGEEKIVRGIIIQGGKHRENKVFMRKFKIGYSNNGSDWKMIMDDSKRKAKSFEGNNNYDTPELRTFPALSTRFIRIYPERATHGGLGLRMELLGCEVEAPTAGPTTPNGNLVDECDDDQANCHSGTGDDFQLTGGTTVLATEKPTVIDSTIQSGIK
Description: ELISA inhibition of VEGF binding to NRP-1. The settings on record: for inhibition at 10 µM: compounds at 10 μM. As to the method:
Elisa test was performed covering a 96-well microplate (BD Biosciences, France, cat no 353046) surface with 100 μl of 1×PBS, pH 7.4 with Ca^2+ and Mg^2+, (Lonza, France, cat no 17-513F/12) solution containing 0.2 μg/ml of VEGF-R1 (R&D Systems, UK, cat no 321-FL-050/CF) or 2 μg/ml of NRP-1 (R&D Systems, UK, cat no 3870-N1-025) or NRP-2 (R&D Systems, UK, cat no […]). The plate was sealed and incubated overnight at 4° C. After 3 washes with 200 μl of 1×PBS 0.5% (v/v) Tween 20 (Sigma, France, cat no 34078) (Buffer A), the plate was blocked by adding 200 μl of 1×PBS with 0.5% (w/v) BSA (Eurobio, France, cat no GAUBSA01-65) and agitated at 37° C. for 2 h. After washing five times with Buffer A, 50 μl/well of the compounds of the invention at 10 μM were added for the specific signal and 50 μl/well for the non-specific and max binding signal and incubated at 37° C. for 1 hour, shacking. 50 μl of btVEGF (R&D Systems, UK, cat no NFVEO) at […] for NRP-1/4 μg/ml Heparin (Sigma, USA, cat no H3393-10KU), 300 μg/ml for NRP-2 and 100 μg/ml for VEGF-R1 solution was added to each well; the plate was sealed and incubated at 37° C. for 2 h, shacking. The last incubation was carried out, after five washes with Buffer A, adding 100 μl/well Streptavidin-Horseradish Peroxidase (Amersham, Switzerland, cat no RPN4401) diluted 1:8000 with buffer A. After 1 h shacking at 37° C. under obscurity, the plate was washed 5 times with buffer A and 100 μl of SuperSignal west picochemiluminescent substrate (Interchim, USA cat no 34078) were added. Luminescence was quantified with an EnVision™ 2101 Multilabel reader (Perkin Elmer, USA) and the data analyzed by Wallac Envision manager software. Signal is given as relative light units (RLU). Non-specific binding is defined as the signal measured in the absence of receptor coated on the microplate. The specific binding was calculated as the difference between total binding and non-specific binding. The percentage of inhibition was calculated as following: […]

The record followed here is US20130041005A1, “PHARMACEUTICAL COMPOSITIONS COMPRISING NEUROPILIN INHIBITORS, AND THEIR USE FOR THE PREVENTION AND/OR TREATMENT OF ANGIOGENIC DISORDERS AND CANCERS” (TRAGEX PHARMA, priority 2011, published 2013).

Broadly, the IC50 is the midpoint of a concentration-inhibition curve. Read a low IC50 as higher potency. The term inhibition denotes how much of the control response was suppressed.

Regarding `Cc1ccc(-c2nc3ccccc3[nH]2)cc1NC(=S)NC(=O)c1ccc2c(c1)OCCO2` [Compound 1, N-[5-(1H-benzimidazol-2-yl)-2-methylphenyl]-N′-(2,3-dihydro-1,4-benzodioxin-6-ylcarbonyl)thiourea], the IC50 turned out to be 38 ± 2.08 µM and the inhibition at 10 µM was 35 ± 4%.
The like results for `O=C(NC(=S)Nc1cccc(-c2nc3ccccc3[nH]2)c1)c1ccc2c(c1)OCCO2` [Compound 2, N-[3-(1H-benzimidazol-2-yl)phenyl]-N′-(2,3-dihydro-1,4-benzodioxin-6-ylcarbonyl)thiourea] were, in that order, 34 ± 3.11 µM and 24 ± 2%.
